Test results from US20260072027A1, “Peptides And Method” (Queen Mary University of London, priority 2022, published 2026).
“And” between values parts separate entries of the source, which are not always exact repeats. Equal entries are not always repeated. “Also recorded” adds a separate entry of the source. Where no end group is shown, it is not given here.

What was measured:
[1] = system: autoantibodies to oxPTM-INS; assay: Competitive displacement ELISA, plate coated with oxidised insulin; assay type: binding, human; details: for inhibition of type 1 diabetes serum binding to oxPTM-INS (in words): sera pre-incubated with peptide competitor
Procedure: A competitive displacement assay was performed to map the exact epitope, namely the exact amino acid sequence binding specificities and to test the binding to native peptides versus oxidised insulin peptides. The binding to the peptide was done by direct ELISA on the native or modified peptides or by competition ELISA. Initially native synthetic peptide was oxidised by exposing to 0.05 mM CuCl2; 90 mM H2O2; 10 mM NaOCl. Native and modified peptides were fractionated by AKTA to evaluated changes in molecular profile. AKTA fractions were then tested by ELISA for reactivity (FIGS. 2 and 3). We next perform competition ELISA with the native peptides and peptides exposed to 0.05 mM CuCl2; 90 mM H2O2; 10 mM NaOCl. Serum samples were pre-incubated with either native insulin peptides or oxidised insulin peptides. Finally, based on the amino acid sequence of the identified peptides we predicted the amino acids that would be oxidised by ^●OH and HOCl and designed synthetic peptides that contain the oxidised amino acids in the synthesis. Synthetic peptides were produced by standard commercially available methods, specifically by Peptide Protein Research Ltd. Briefly, peptide synthesis was performed by automated solid phase peptide synthesis (SPPS), which was followed by purification. Each individual amino acid was added to the growing chain according to the sequence. Where specified, dihydroxyphenylalanine was added to replace Tyr or cysteate were added to replace Cys. Similarly, these peptides were tested by competition ELISA. The table below describe the different competition ELISA performed:
Serum samples from children with type 1 diabetes were pre-incubated with the synthetic peptides before they were added to the native insulin or oxidised that were previously coated on the ELISA plate. If the antibodies in the serum sample bind to the peptide they will no longer bind to the insulin or oxidised insulin on the plate-competition ELISA. 1:200 dilutions of serum samples from T1D serum samples were pre-incubated for 2 hr at room temperature with the various peptides as shown in the table above. After incubation, serum/peptide mix was added to the ELISA plate previously coated overnight with either native insulin or oxidised insulin for an additional 2 hr incubation. Plates were then washed in a plate washer three times with PBS 0.05% tween. After washing, 100 ul of anti-human IgG diluted 1:1000 in 1% milk-PBS 0.05% tween were added for additional 1 hour and 30 min incubation. After washing, ELISA was developed by adding 100 ul of TMB (10 mg/ml in DMSO) in 10 ml of 0.1 M sodium acetate plus 2 ul of H2O2. Reaction was stopped by adding 0.5 M H2SO4 (usually 20 min for insulin ELISA).
To assess the binding specificity of serum samples to identified peptides, a competitive ELISA was performed. The ELISA was carried out following the method described above, except that the serum samples were pre-incubated for 2 h with and without 10 μg/ml peptides as competitors, before adding the serum samples to the insulin coated ELISA plate.

serum IgG autoantibodies = assay: ELISA for autoantibody detection: serum antibody binding to native and oxPTM insulin peptides; parameters: species or system human
Summary of the method: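 Plates coated overnight at 4 °C with native or HOCl/•OH-oxidised insulin peptides (10 μg/ml, carbonate buffer pH 9.6), blocked with 5% BSA, incubated 2 h with sera at 1:200, then probed with anti-human IgG-HRP and developed with TMB, read at 450 nm. Positivity cut-off: healthy-control mean O.D. plus 3×SEM.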

[2] = Study cohort 1, in house modifications

| reduced binding to oxidised whole insulin ([1]; type 1 diabetes sera pre-incubated with peptide, listed as Oxidised peptide 3) | % binders, Healthy controls (serum IgG autoantibodies; [2]) [%] | Mean ± SEM (absorbance, OD), Healthy controls (serum IgG autoantibodies; [2]) | % binders, Type 1 diabetes (serum IgG autoantibodies; Study cohort 1, in house modifications, cut-off = mean of healthy controls to Nt-INSP plus 3 SEM) [%] | Mean ± SEM (absorbance, OD), Type 1 diabetes (serum IgG autoantibodies; Study cohort 1 sera, in house modifications) | type 1 diabetes binders (IgG autoantibody reactivity) (serum IgG autoantibodies; Study cohort 2, N = 18) [%] | Substance | inhibition of type 1 diabetes serum binding to oxPTM-INS (in words) [1] | Antibody reactivity of serum samples (in words) (serum IgG autoantibodies; ELISA) | inhibition of type 1 diabetes serum binding to oxPTM-INS (in words) ([1]; listed as Nt-INSP-4) |
| --- | --- | --- | --- | --- | --- | --- | --- | --- | --- |
| 35-80% and 40-80% |  |  |  |  |  | oxPTM-INSP-3: oxidised forms of insulin peptide 3 (A:12-21), in house oxidised or in silico derivatives (SLYQLENYCN; not fully specified (N-terminus); also: oxidised forms, in house oxidised or in silico derivatives, modified residues not defined) | strongly inhibited binding to oxPTM-INS; also recorded: able to inhibit the binding | High background binding in healthy controls; also recorded: high background binding of healthy controls |  |
|  | 20 | 0.306 ± 0.032 | 50 | 0.469 ± 0.047 | 38.9 | LVEALYLVCGERGFFYTPKT [insulin B:11-30 native peptide] |  |  | comparable inhibition as oxPTM-INSP-4; also recorded: comparable inhibition compared to oxPTM-INSP-4; also recorded: blocked type 1 diabetes serum binding to oxPTM-INS like oxPTM-INSP-4 |
